Holding throughout (assay type): cell-based
The subject of experiment [1] is Bacillus subtilis 168. Put plainly: Evaluation of Bacillus subtilis protective activity in freeze-dried condition. Conditions: for Numbers of live bacterial cells (relative numbers): Bacillus subtilis freeze-dried with 6% aqueous solution (final concentration 3%), test sample 3 (FD) = 1. How it is done:
Using test samples 1 to 5 containing Bacillus subtilis prepared in the following manner, microorganism-protective activity with trehalose or 4-trehalosamine in a freeze-dried condition was evaluated.
Frozen stock of Bacillus subtilis (Bacillus subtilis 168 (obtained from ATCC)) was inoculated in 10 mL of Luria-Bertani (LB) culture medium (manufactured by Difco) and cultured at 37° C. for 24 hours while shaking it at 220 rpm. After culture, it was centrifuged at 3,000×g for 5 minutes, washed once with 10 mL of water, and then suspended in 10 mL of water, thus obtaining Bacillus subtilis suspension. 50 μL of water was added to and mixed with 50 μL of this Bacillus subtilis suspension, and the mixture was left to stand at 4° C. for 20 hours, preparing control (NF).
After Bacillus subtilis suspension was prepared in a similar manner to test sample 1, 50 μL of 6% aqueous solution of trehalose was added to and mixed with 50 µL of the Bacillus subtilis suspension, and the mixture was frozen at −80° C. for 10 minutes. It was then freeze-dried for 20 hours with a freeze dryer (FLEXI-DRY, manufactured by FTS systems INC., Warminster) connected to a vacuum pump (P65D, manufactured by PHIL Sato Vac INC.), preparing freeze-dried product (TRH) of Bacillus subtilis with TRH.
Freeze-dried product (4TA) of Bacillus subtilis with 4TA was obtained in a similar manner to the preparation method of test sample 4 except that trehalose was changed to 4-trehalosamine (4TA) in the preparation method of test sample 4.
For test samples 1 and 2, serial suspensions were made by diluting them to 1/10 with water. 100 μL of water was added to each of the freeze-dried products of test samples 3 to 5 and diluted to 1/10 with water to make their serial suspensions. […]
Wells in which the number of colonies was measurable were selected and the numbers (relative numbers) of live bacterial cells per well on test samples 1, 2, 4, and 5 when the number of live bacterial cells per well on test sample 3 (FD) was “1” were calculated in consideration of the dilution concentrations of those test samples.

Experiment [2] deals with human ovarian cancer cells OVK18 and human malignant melanoma cells Mewo. Kind of experiment: LC3-II expression in combination with autophagy inhibitor (bafilomycin or chloroquine). The settings on record: 50 mM 4-trehalosamine, 50 μM IMCTA-C14 or 100 mM trehalose 14 hours, then 200 nM BM or 100 μM CQ 4 hours. How it is done:
As with the test example 10-1, human ovarian cancer cells OVK18 (obtained from RIKEN BRC) and human malignant melanoma cells Mewo (JCRB0066) were each inoculated on a 12-well microplate at 8×10^4 cells/mL/well, and cultured in DMEM culture medium at 37° C. for 72 hours. After that, a half of the culture fluid in each well was taken and each compound was dissolved so that the final concentration is 50 mM 4-trehalosamine, 50 μM IMCTA-C14, or 100 mM trehalose. After dissolving it sufficiently, the cells were returned to the original well and treated at 37° C. for 14 hours. Untreated cells without addition of the compounds were used as control.
After that, each autophagy inhibitor was added so that the final concentration is 200 nM bafilomycin (BM) or 100 μM chloroquine (CQ), and the cells were cultured at 37° C. for 4 hours. A group with no inhibitor added was cultured in a similar way. After culture, they were turned into samples for western blotting in a similar manner to test example 10-1.
The western blotting was performed in a similar manner to test example 4 except that anti-LC3 antibody (manufactured by Cell Signaling Technology) was used at 1/2,000 dilution as the primary antibody in the method described in test example 4. The results for human ovarian cancer cells OVK18 are shown in FIG. 21A, and the results for human malignant melanoma cells Mewo are shown in FIG. 21B.
Also, the results (graphs) of image analysis on the results of western blotting via Image J (manufactured by National Institutes of Health) are shown in FIGS. 21A and 21B (n=10, mean±S.D.). The vertical axis of the graph indicates the value of the amount of expression (expression amount ratio) of LC3-II for the groups with the different compounds added when the amount of expression of LC3-II in the control (untreated cells) is 1. […]

Experiment [3] shares this test system. Put plainly: Autophagy inducing effect on cultured cells (western blotting of autophagy-related proteins). The settings on record: 24 hours treatment, western blotting. How it is done:
Expression and phosphorylation patterns of autophagy-related proteins when human ovarian cancer cells or human malignant melanoma cells were treated with 4-trehalosamine and trehalose analog for 24 hours were determined by western blotting.
Human ovarian cancer cells OVK18 (obtained from RIKEN BRC) and human malignant melanoma cells Mewo (JCRB0066) were each inoculated on a 12-well microplate at 8×10^4 cells/mL/well and cultured in DMEM culture medium at 37° C. for 72 hours, after which they were treated with test samples.
The test samples used were the 4-trehalosamine (4TA) obtained in the <Purification process> of production example 10, trehalose (TRH), the IMCTA-Cn compounds obtained in synthesis examples 1 to 8, trehalose ester (TRH-Cn) (manufactured by Dojindo Laboratories), n-dodecyl-β-D-maltoside (DDM), maltose (MLT), sucrose (SCR), and rapamycin (RM). Untreated cells without addition of compounds were used as control.
In treatment with the test samples, in order to avoid contact of a compound with locally high concentration with cells, a half of the culture fluid in each well was taken, and a required amount of test sample was dissolved in it. After dissolving it sufficiently, it was returned to the original well and treated at 37° C. for 24 hours.
Subsequently, culture medium containing the test samples was removed, washed once with PBS, and dissolved with 2×SDS sample buffer not containing 2-mercaptoethanol (2-ME) or bromphenol blue (BPB). After measuring the protein concentration in the dissolved sample with a BCA protein assay kit (manufactured by Thermo Fisher Scientific), 2-ME and BPB were added and the sample was boiled for 5 minutes, which was used as a sample for western blotting.
The western blotting was performed in a similar manner to test example 4 except that anti-LC3 antibody, which is a marker for autophagy, anti-p62, anti-cathepsin D antibody, anti-Phospho-Akt (Ser473) antibody, anti-Akt antibody, anti-Phospho-p70 S6K (T389) antibody, and anti-p70 S6K antibody (all manufactured by Cell Signaling Technology) were used at 1/2,000 dilution as the primary antibodies in the method described in test example 4.
The results for human ovarian cancer cells OVK18 are shown in FIGS. 20A to 20C, and the results for human malignant melanoma cells Mewo are shown in FIGS. 20D to 20F. In FIGS. 20A, 20B, 20D, and 20E, “PCD” denotes precursors of cathepsin D and “CD-HC” denotes cathepsin D heavy chain.
In general terms: A western blot detects proteins with antibodies after separation by electrophoresis.

The text below walks through data of patent US20250002954A1, “Novel Compound, Use Thereof, and Method for Producing Same, and Compound-Containing Composition, Method for Producing 4-Trehalosamine, and Microorganism” (Microbial Chemistry Research Foundation, priority 2021, published 2025).

In the case of `OC[C@H]1O[C@H](O[C@H]2O[C@H](CO)[C@@H](O)[C@H](O)[C@H]2O)[C@H](O)[C@@H](O)[C@@H]1O` [trehalose, reference compound], in experiment [1], the “Numbers of live bacterial cells (relative numbers)” value was determined as 10. Further, in experiment [2], the “expression of LC3-II in combination with bafilomycin (BM) or chloroquine (CQ)” value is listed as “increased expression of LC3-II”.

Regarding `OC[C@H]1O[C@@](CO)(O[C@H]2O[C@H](CO)[C@@H](O)[C@H](O)[C@H]2O)[C@@H](O)[C@@H]1O` [sucrose], the “expression of LC3-II (autophagy marker)” value in experiment [3] is “expression of LC3-II was also observed”.

`N[C@H]1[C@H](O)[C@@H](O)[C@@H](O[C@H]2O[C@H](CO)[C@@H](O)[C@H](O)[C@H]2O)O[C@@H]1CO` [4-trehalosamine]: the “Numbers of live bacterial cells (relative numbers)” value in experiment [1] stood at 100. The “protective effect on microorganisms, comparison” value in experiment [1] (Bacillus subtilis, freeze-dried) is “stronger than when trehalose was added”. In addition, the “expression of LC3-II (autophagy marker)” value in experiment [3] is reported as “elevated expression of LC3-II”. Besides, the “expression of LC3-II in combination with bafilomycin (BM) or chloroquine (CQ)” value in experiment [2] is given as “increased expression of LC3-II”.
